For the test, the target named is T1, LRRK2 (Homo sapiens, UniProt Q5S007).
T1 construct: LRRK2-NanoLuc fusion
Description: NanoBRET in-cell target engagement, competitive displacement of K-9 tracer in transfected HEK293 cells. The format is cell-based. On the technique in general: Bioluminescence resonance energy transfer reports proximity on the nanometre scale.

The EC50 is the concentration that produces a half-maximal response. A lower EC50 goes with a more potent agent.

T1 sequence (Q5S007 whole entry, the tested form may be a part): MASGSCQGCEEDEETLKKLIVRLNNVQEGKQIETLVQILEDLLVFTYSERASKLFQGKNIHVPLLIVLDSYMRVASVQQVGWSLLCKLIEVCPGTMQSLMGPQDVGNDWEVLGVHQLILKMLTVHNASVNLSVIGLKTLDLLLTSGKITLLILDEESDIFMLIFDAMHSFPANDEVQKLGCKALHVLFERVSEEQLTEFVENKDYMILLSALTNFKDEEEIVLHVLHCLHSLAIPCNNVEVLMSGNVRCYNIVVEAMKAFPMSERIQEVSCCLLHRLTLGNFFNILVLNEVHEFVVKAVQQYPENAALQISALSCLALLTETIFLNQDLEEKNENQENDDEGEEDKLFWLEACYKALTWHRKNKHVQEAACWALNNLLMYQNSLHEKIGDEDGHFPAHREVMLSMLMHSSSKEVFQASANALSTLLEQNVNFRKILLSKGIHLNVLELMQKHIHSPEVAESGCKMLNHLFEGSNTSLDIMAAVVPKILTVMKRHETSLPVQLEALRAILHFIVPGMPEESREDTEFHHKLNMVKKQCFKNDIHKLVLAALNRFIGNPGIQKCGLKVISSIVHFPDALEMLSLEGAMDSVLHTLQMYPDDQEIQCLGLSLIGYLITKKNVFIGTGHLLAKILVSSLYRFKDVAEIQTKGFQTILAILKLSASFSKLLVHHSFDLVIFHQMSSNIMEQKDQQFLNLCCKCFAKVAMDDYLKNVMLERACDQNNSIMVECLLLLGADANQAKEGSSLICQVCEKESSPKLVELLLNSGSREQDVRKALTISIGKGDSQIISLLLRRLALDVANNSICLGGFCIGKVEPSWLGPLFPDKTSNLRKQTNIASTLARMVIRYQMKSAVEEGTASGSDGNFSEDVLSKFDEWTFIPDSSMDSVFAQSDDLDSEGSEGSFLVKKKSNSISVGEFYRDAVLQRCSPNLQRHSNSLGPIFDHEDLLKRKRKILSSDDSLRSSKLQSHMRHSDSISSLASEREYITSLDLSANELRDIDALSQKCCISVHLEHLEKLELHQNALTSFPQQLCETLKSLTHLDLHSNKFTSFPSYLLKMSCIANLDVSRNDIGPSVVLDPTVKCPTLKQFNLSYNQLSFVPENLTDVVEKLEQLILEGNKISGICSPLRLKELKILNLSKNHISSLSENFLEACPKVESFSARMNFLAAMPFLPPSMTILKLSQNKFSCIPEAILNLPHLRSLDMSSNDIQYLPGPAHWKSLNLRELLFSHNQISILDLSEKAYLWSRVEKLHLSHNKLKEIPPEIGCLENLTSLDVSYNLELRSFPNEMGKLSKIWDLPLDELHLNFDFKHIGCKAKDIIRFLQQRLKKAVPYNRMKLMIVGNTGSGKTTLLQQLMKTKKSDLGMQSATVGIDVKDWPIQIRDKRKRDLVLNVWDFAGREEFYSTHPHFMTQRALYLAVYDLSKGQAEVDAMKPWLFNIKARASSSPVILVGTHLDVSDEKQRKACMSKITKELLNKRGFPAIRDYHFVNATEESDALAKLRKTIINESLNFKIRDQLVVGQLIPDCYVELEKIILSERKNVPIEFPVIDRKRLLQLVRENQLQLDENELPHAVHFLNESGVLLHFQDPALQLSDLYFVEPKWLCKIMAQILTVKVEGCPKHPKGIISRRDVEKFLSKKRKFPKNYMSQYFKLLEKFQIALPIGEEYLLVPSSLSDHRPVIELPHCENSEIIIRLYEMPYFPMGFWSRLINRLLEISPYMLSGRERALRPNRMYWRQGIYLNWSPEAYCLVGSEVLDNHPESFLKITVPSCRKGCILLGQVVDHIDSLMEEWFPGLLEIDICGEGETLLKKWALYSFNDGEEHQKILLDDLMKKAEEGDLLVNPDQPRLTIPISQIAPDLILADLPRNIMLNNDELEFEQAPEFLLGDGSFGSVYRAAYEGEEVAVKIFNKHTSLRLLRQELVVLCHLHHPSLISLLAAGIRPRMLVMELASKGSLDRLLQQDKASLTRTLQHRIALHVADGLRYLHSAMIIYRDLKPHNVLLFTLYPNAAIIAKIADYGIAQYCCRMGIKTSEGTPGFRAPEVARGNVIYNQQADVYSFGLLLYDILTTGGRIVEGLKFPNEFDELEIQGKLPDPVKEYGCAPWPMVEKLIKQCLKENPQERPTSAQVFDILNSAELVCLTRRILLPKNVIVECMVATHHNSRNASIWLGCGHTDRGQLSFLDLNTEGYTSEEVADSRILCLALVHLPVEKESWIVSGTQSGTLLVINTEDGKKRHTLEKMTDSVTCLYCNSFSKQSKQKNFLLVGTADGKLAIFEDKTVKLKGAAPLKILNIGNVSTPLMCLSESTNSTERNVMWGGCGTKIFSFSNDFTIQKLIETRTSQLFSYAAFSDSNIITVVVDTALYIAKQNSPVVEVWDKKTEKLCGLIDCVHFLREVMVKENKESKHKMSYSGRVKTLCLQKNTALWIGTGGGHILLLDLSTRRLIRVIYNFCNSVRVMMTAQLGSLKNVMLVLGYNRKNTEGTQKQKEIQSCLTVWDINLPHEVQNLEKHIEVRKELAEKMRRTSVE

Substance OSU13 registered a concentration for a half-maximal effect (EC50) of 216 nM.

Source of the values: publication PMC11383830, “TTK inhibitor OSU13 promotes immunotherapy responses by activating tumor STING” (JCI Insight, 2024).
